Measured values taken from patent US8835447B2, “Method for treating androgen receptor positive cancers” (priority 2009, dated 2014).
“Also recorded” adds a separate entry of the source.

Columns and labels:
[1] = tested on: CWR22R cells; assay: Cell cycle distribution by propidium iodide staining; assay type: cell-based, human; settings: propidium iodide FACS
Method: Analysis of cell cycle distribution was based on staining of DNA content by propidium iodide. 10^5 cells were removed from culture dishes using trypsin, washed with PBS and resuspended in 300 μl 3% BSA in PBS, followed by addition of […] 70% ethanol. Cells were kept at −20° C. for several hours and then stained with 10 μg/ml propidium iodide in the presence of 30 μg/ml RNase A for 2 hrs at 37° C. DNA content was assessed using a FACS Calibur instrument and CellQuest software (Becton Dickinson, Franklin Lakes, N.J.).
To test this possibility, we assessed the cell cycle distribution of CWR22R cells treated with both categories of compounds. […] Therefore, different subsets of compounds inhibiting AR-dependent transcription in androgen-independent PCa cells cause either growth arrest or apoptosis in these cells. Whether a compound causes growth arrest or apoptosis is not determined by the potency of the compound as an inhibitor of AR-dependent transcription (i.e., FIG. 2B).

[2] = tested on: NIH Swiss mice; assay: Compound safety in mice, dose escalation; assay type: in vivo; settings: three i.p. injections 20x, 50x, 100xIC50 in 3 day intervals
Method: Testing of compound safety in mice was done according to an IACUC-approved protocol. The experiment was performed using outbred 8 week old NIH Swiss male mice from Harlan (Indianapolis, Ind.), 4 mice per group. IC50 concentrations were used to calculate in vivo doses based on mouse weight (IC50 in vivo dose equivalent in mg/kg=IC50 in mg/ml×1000, based on the assumption that 1 g of mouse tissues have an approximate volume of 1 ml). The compounds were injected intraperitoneally (i.p.) in 25% DMSO-75% PBS starting from 20×IC50 equivalent of in vitro cytotoxic dose of compounds. […]. The control group of mice received 3 injections of 25% DMSO-75% PBS in intervals of three days. Blood biochemistry analysis was performed by BioReliance (Rockville, Md.).
Five hit compounds, representing both the ARTIS and ARTIK categories (c6, c11, c17, c52 and c85), were selected for in vivo tests based on all of the previous assays. Compound c5 was rejected due to very low microsomal stability (<5% after 1 hour incubation with rat microsomes). The toxicity of the compounds was evaluated in a dose escalation assay in which male NIH Swiss mice (n=4) received three sequential intraperitoneal (i.p.) injections of each compound delivered in 3 day intervals. […]. On the day after the last injection, half of the mice in each group were sacrificed for gross pathology examination and collection of blood for serum biochemistry assays, which include total protein, glucose, bilirubin, and creatinine levels, activity of liver enzymes, and ion concentrations. The remaining mice were sacrificed and evaluated similarly 7 days after the last compound injection. […] A minor decrease in serum glucose concentration (70-80% of control) was observed on the day after the last compound injection in almost all mice, but glucose levels were normal a week later (data not shown). Low serum glucose level might reflect of a weak transient GR-inhibitory effect of the selected compounds.

[3] = tested on: AR-expressing PCa cell lines (LNCaP, C4-2, CWR22R); assay: Toxicity to AR-expressing PCa cell lines (colony formation / dose-dependent growth inhibition); assay type: cell-based, human
Method: (§1) Cell Colony Assay: Cells were plated in 24-well plates at a density allowing 6-7 days of exponential growth before confluency. Medium and compound was replaced every 48 hours to minimize the effect of potential compound instability. After 7 days of incubation in the presence of compound, cells were fixed and stained with methylene blue, followed by extraction of the stain with 1% SDS and spectrophotometry at 650 nm. Each assay was run in triplicate and the difference between control and compound-treated wells was determined using Student's t-test.
Dose-dependent inhibition of cell growth: Cells were plated at 1×10^3 cells per well in 96-well plates. Compounds were added in a dose range from 1 to 20000 nM in two-fold increments. Each dose was tested in triplicate. Controls were 0.1% DMSO (no effect on cell viability) and 50 μM 9-aminoacridine (complete cell death). Cells were incubated for 6 days and then fixed and stained with methylene blue, followed by extraction of the stain with 1% SDS and spectrophotometry at 650 nm. The assay was run two times and, based on the results, the inhibitory concentration of compound suppressing cell growth by 50% as compared to DMSO (IC50) was calculated by the sigmoid approximation method using CalcuSyn software (Biosoft, Chembridge, UK). Confidence intervals were calculated for each sigmoid.
This Example provides a description of the effect of the selected compounds on the growth of PCa cells. To test the toxicity of the identified AR inhibitors towards cells of different origins, we performed colony formation assays using a single dose of each compound (10 μM) on several PCa (LNCaP, C4-2, CWR22R and DU145) and two non-PCa (HT1080 and HeLa) cell lines (FIG. 2A). […] These compounds were not weaker inhibitors of AR transcriptional activity in CWR22R or C4-2 cells than compounds that inhibited growth of the cells. […]

[4] = tested on: HT1080, HeLa and DU145 cells; assay: Colony formation assay, non-PCa and AR-negative PCa cells; assay type: cell-based, human; settings: 10 μM, 7 days
Method: as §1
This Example provides a description of the effect of the selected compounds on the growth of PCa cells. To test the toxicity of the identified AR inhibitors towards cells of different origins, we performed colony formation assays using a single dose of each compound (10 μM) on several PCa (LNCaP, C4-2, CWR22R and DU145) and two non-PCa (HT1080 and HeLa) cell lines (FIG. 2A). […] These compounds were not weaker inhibitors of AR transcriptional activity in CWR22R or C4-2 cells than compounds that inhibited growth of the cells.

Question: How did the “cells with sub-G1 DNA content (apoptotic)” value [1] turn out when `CCCn1c2ccccc2c2cc(C(C)=O)ccc21` [c52] was run?
Answer: appearance of cells with sub-G1 DNA content

Question: What about the “toxicity in mice (visual inspection, gross pathology)” value [2] of the same compound?
Answer: generally non-toxic

Question: What about the “toxicity towards AR-expressing PCa cell lines” value ([3]; colony formation, 10 μM, three AR-expressing PCa cell lines) of the same compound?
Answer: different degrees of toxicity; also recorded: kill all PCa cells expressing AR

Question: And the “degree of toxicity to PCa cells (killing vs reduced growth)” value ([3]; dose-dependent toxicity, by day 7)?
Answer: kill practically all of the PCa cells in the culture by day 7

Question: What about the “growth of / toxicity towards non-PCa cells or AR-negative PCa cells (DU145)” value [4] of the same compound?
Answer: no toxicity
